According to ChEMBL document CHEMBL3351318, “Synthesis of novel 4-nitropyrrole-based semicarbazide and thiosemicarbazide hybrids with antimicrobial and anti-tubercular activity” (Bioorg Med Chem Lett, 2014):
pIC50: −log10 of the molar value. Values after ≈ are worked out from the molar mass of the structure shown.

Legend:
[1] = test system: Escherichia coli; experiment: Antimicrobial activity against Escherichia coli ATCC 25922 after 48 hrs by broth dilution technique; assay type: functional; conditions: ATCC 25922, 48 h
[2] = test system: Klebsiella pneumoniae; experiment: Antimicrobial activity against Klebsiella pneumoniae after 48 hrs by broth dilution technique; assay type: functional
[3] = test system: Staphylococcus aureus; experiment: Antimicrobial activity against methicillin-sensitive Staphylococcus aureus ATCC 35556 after 48 hrs by broth dilution technique; assay type: functional; conditions: ATCC 35556, 48 h
[4] = test system: Staphylococcus aureus; experiment: Antimicrobial activity against methicillin-resistant Staphylococcus aureus ATCC 43866 after 48 hrs by broth dilution technique; assay type: functional; conditions: ATCC 43866, 48 h
[5] = test system: Candida albicans; experiment: Antimicrobial activity against Candida albicans after 48 hrs by agar dilution method; assay type: functional
[6] = test system: Mycobacterium tuberculosis; experiment: Antitubercular activity against Mycobacterium tuberculosis H37Rv after 7 days by Resazurin micro titer assay; assay type: functional; conditions: 168 h
[7] = test system: Vero; experiment: Cytotoxicity against African green monkey Vero cells assessed as reduction in cell viability after 72 hrs by MTT assay; assay type: cell-based; conditions: Chlorocebus sabaeus
[8] = test system: Candida albicans; experiment: Ratio of Amphotericin B MIC to compound MIC for Candida albicans after 48 hrs by broth dilution technique; assay type: functional

| Structure (SMILES) | MIC [1] [µg/mL] | MIC [2] [µg/mL] | MIC [3] [µg/mL] | MIC [4] [µg/mL] | MIC [5] [µg/mL] | MIC [6] [µg/mL] | pIC50 [7] | Ratio [8] |
| --- | --- | --- | --- | --- | --- | --- | --- | --- |
| Cn1cc([N+](=O)[O-])cc1C(=O)NNC(=O)Nc1ccc(Cl)cc1 | 1.56 (≈ 4.62 µM) | 3.12 (≈ 9.25 µM) | 1.56 (≈ 4.62 µM) | 3.12 (≈ 9.25 µM) | 1.56 (≈ 4.62 µM) | 30.5 (≈ 90.3 µM) | 3.54 | 2 |
| O=C(NNC(=S)Nc1ccc(F)cc1)c1cc([N+](=O)[O-])c[nH]1 | 1.56 (≈ 4.83 µM) | 3.12 (≈ 9.67 µM) | 1.56 (≈ 4.83 µM) | 3.12 (≈ 9.67 µM) | 3.12 (≈ 9.67 µM) | 0.56 (≈ 1.73 µM) | 3.48 | 4 |
| O=C(NNC(=S)NCCc1ccccc1)c1cc([N+](=O)[O-])c[nH]1 | 3.12 (≈ 9.37 µM) | 6.25 (≈ 18.7 µM) | 1.56 (≈ 4.68 µM) | 3.12 (≈ 9.37 µM) | 3.12 (≈ 9.37 µM) | 3.9 (≈ 11.7 µM) | 3.55 | 4 |
| COc1ccc(OC)c(NC(=O)NNC(=O)c2cc([N+](=O)[O-])c[nH]2)c1 | 3.12 (≈ 8.95 µM) | 3.12 (≈ 8.95 µM) | 1.56 (≈ 4.47 µM) | 3.12 (≈ 8.95 µM) | 3.12 (≈ 8.95 µM) | 14.5 (≈ 41.5 µM) | 3.48 |  |
| O=C(NNC(=S)NCc1ccccc1)c1cc([N+](=O)[O-])c[nH]1 | 3.12 (≈ 9.79 µM) | 6.25 (≈ 19.6 µM) | 3.12 (≈ 9.79 µM) | 6.25 (≈ 19.6 µM) | 3.12 (≈ 9.79 µM) | 7.3 (≈ 22.9 µM) | 3.40 | 4 |
| O=C(O)c1cn(C2CC2)c2cc(N3CCNCC3)c(F)cc2c1=O [CIPROFLOXACIN] |  | 1.56 (≈ 4.71 µM) | 1.56 (≈ 4.71 µM) | 3.12 (≈ 9.43 µM) |  |  |  |  |
| O=C(NNC(=O)c1cc([N+](=O)[O-])c[nH]1)Nc1ccc(Br)cc1 | 3.12 (≈ 8.49 µM) | 3.12 (≈ 8.49 µM) | 1.56 (≈ 4.24 µM) | 3.12 (≈ 8.49 µM) | 3.12 (≈ 8.49 µM) | 1.1 (≈ 2.99 µM) | 3.42 |  |
| Cn1cc([N+](=O)[O-])cc1C(=O)NNC(=O)NCCc1ccccc1 | 3.12 (≈ 9.43 µM) | 6.25 (≈ 18.9 µM) | 1.56 (≈ 4.71 µM) | 3.12 (≈ 9.43 µM) | 1.56 (≈ 4.71 µM) | 42.1 (≈ 127 µM) | 3.20 | 2 |
| C=[N+]([O-])c1cc(C(=O)NNC(=O)NCc2ccccc2)n(C)c1 | 3.12 (≈ 9.91 µM) | 3.12 (≈ 9.91 µM) | 1.56 (≈ 4.95 µM) | 3.12 (≈ 9.91 µM) | 1.56 (≈ 4.95 µM) | 51.9 (≈ 165 µM) | 3.52 | 2 |
| C[C@@H]1[C@H](O)[C@@H](C)/C=C/C=C/C=C/C=C/C=C/C=C/C=C/[C@H](O[C@@H]2O[C@H](C)[C@@H](O)[C@H](N)[C@@H]2O)C[C@@H]2O[C@](O)(C[C@@H](O)C[C@@H](O)[C@H](O)CC[C@@H](O)C[C@@H](O)CC(=O)O[C@H]1C)C[C@H](O)[C@H]2C(=O)O [AMPHOTERICIN B] |  |  |  |  | 3.12 (≈ 3.38 µM) |  |  |  |
| O=C(NCc1ccccc1)NNC(=O)c1cc([N+](=O)[O-])c[nH]1 | 6.25 (≈ 20.6 µM) | 6.25 (≈ 20.6 µM) | 1.56 (≈ 5.14 µM) | 3.12 (≈ 10.3 µM) | 3.12 (≈ 10.3 µM) | 15.2 (≈ 50.1 µM) | 3.46 |  |
| O=C(NNC(=S)Nc1ccc([N+](=O)[O-])cc1)c1cc([N+](=O)[O-])c[nH]1 | 1.56 (≈ 4.45 µM) | 3.12 (≈ 8.92 µM) | 1.56 (≈ 4.45 µM) | 3.12 (≈ 8.92 µM) | 3.12 (≈ 8.92 µM) | 0.5 (≈ 1.43 µM) | 3.28 | 4 |
| COc1ccc(OC)c(NC(=O)NNC(=O)c2cc([N+](=O)[O-])cn2C)c1 | 1.56 (≈ 4.29 µM) | 6.25 (≈ 17.2 µM) | 3.12 (≈ 8.6 µM) | 6.25 (≈ 17.2 µM) | 1.56 (≈ 4.29 µM) | 42.4 (≈ 117 µM) | 3.37 | 2 |
| O=C(NNC(=O)c1cc([N+](=O)[O-])c[nH]1)NC1CCCC1 | 3.12 (≈ 11.1 µM) | 3.12 (≈ 11.1 µM) | 1.56 (≈ 5.55 µM) | 3.12 (≈ 11.1 µM) | 3.12 (≈ 11.1 µM) | 12.5 (≈ 44.4 µM) | 3.64 |  |
| Cn1cc([N+](=O)[O-])cc1C(=O)NNC(=O)NCc1ccco1 | 1.56 (≈ 5.08 µM) | 3.12 (≈ 10.2 µM) | 1.56 (≈ 5.08 µM) | 3.12 (≈ 10.2 µM) | 1.56 (≈ 5.08 µM) | 17 (≈ 55.3 µM) | 3.32 | 2 |
| COc1ccc(NC(=O)NNC(=O)c2cc([N+](=O)[O-])c[nH]2)cc1 | 3.12 (≈ 9.79 µM) | 3.12 (≈ 9.79 µM) | 1.56 (≈ 4.89 µM) | 3.12 (≈ 9.79 µM) | 3.12 (≈ 9.79 µM) | 2.5 (≈ 7.83 µM) | 3.40 |  |
| O=C(NCc1ccco1)NNC(=O)c1cc([N+](=O)[O-])c[nH]1 | 3.12 (≈ 10.7 µM) | 3.12 (≈ 10.7 µM) | 1.56 (≈ 5.32 µM) | 3.12 (≈ 10.7 µM) | 3.12 (≈ 10.7 µM) | 0.92 (≈ 3.14 µM) | 3.35 |  |
| O=C(NNC(=O)c1cc([N+](=O)[O-])c[nH]1)Nc1ccc(Cl)cc1 | 3.12 (≈ 9.65 µM) | 3.12 (≈ 9.65 µM) | 3.12 (≈ 9.65 µM) | 6.25 (≈ 19.3 µM) | 3.12 (≈ 9.65 µM) | 2 (≈ 6.18 µM) | 3.66 |  |
| O=C(NNC(=O)c1cc([N+](=O)[O-])c[nH]1)Nc1ccccc1 | 3.12 (≈ 10.8 µM) | 3.12 (≈ 10.8 µM) | 1.56 (≈ 5.39 µM) | 3.12 (≈ 10.8 µM) | 3.12 (≈ 10.8 µM) | 40.6 (≈ 140 µM) | 3.45 |  |
| NNC(=O)c1ccncc1 [ISONIAZID] |  |  |  |  |  | 0.4 (≈ 2.92 µM) |  |  |
| O=C(NCCc1ccccc1)NNC(=O)c1cc([N+](=O)[O-])c[nH]1 | 6.25 (≈ 19.7 µM) | 6.25 (≈ 19.7 µM) | 3.12 (≈ 9.85 µM) | 6.25 (≈ 19.7 µM) | 3.12 (≈ 9.85 µM) | 10.3 (≈ 32.5 µM) | 3.66 |  |
| O=C(NNC(=O)c1cc([N+](=O)[O-])c[nH]1)Nc1ccc([N+](=O)[O-])cc1 | 3.12 (≈ 9.35 µM) | 3.12 (≈ 9.35 µM) | 1.56 (≈ 4.67 µM) | 3.12 (≈ 9.35 µM) | 3.12 (≈ 9.35 µM) | 0.8 (≈ 2.39 µM) | 3.68 |  |
